Reference: patent US20040023884A1, “Biologically active peptides from functional domains of bactericidal/permeability-increasing protein and uses thereof” (priority 1993, published 2004)
“Also recorded” adds a separate entry of the source. Ends that are not written are not given here.

Tests used:
E. coli 0113 LPS = assay: Limulus Amoebocyte Lysate (LAL) inhibition assay; type: biochemical
In short: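 BPI proteolytic fragments incubated with E. coli 0113 LPS (4 ng/mL final) for 3 h at 37 °C, then diluted in D-PBS to 200 pg/mL LPS for chromogenic LAL. Lysate 25 min, substrate 20–30 min at room temperature, acetic acid stop; OD405 expressed as percent LPS inhibition.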

E. coli 0111:B4 (smooth) = assay: Broth antibacterial assay, E. coli 0111:B4; type: cell-based
Procedure: In additional experiments, broth antibacterial assays were conducted to further determine the bactericidal activity of certain of the BPI peptides. Specifically, either E. coli J5 (rough) or E. coli 0111:B4 (smooth) bacteria were selected from single colonies on agar plates and used to inoculate 5 mL of Mueller Hinton broth and incubated overnight at 37° C. with shaking. The overnight culture was diluted (˜1:50) into 5 mL fresh broth and incubated at 37° C. to log phase (˜3 hours). Bacteria were pelleted for 5 minutes at 3000 rpm (1500×g). Bacterial pellets were resuspended in 5 mL PBS and diluted to 2×10^6 cells/mL in the Mueller Hinton broth (wherein 1 OD570 unit equals 1.25×10^9 CFU/mL). The BPI functional domain peptides to be tested were diluted to 200 μg/mL in broth and serially diluted 2-fold in 96 well culture plates (100 μL volume). All items were at 2-fold final concentration and experiments were conducted in triplicate. Bacteria were added at 100 μL/well and the plates were incubated on a shaker at 37° C. for a 20 hour period. The plates were then read on an ELISA plate multiple reader at 590 nm. One of the triplicate wells from each peptide concentration was selected for colony forming unit (CFU) determination. A 30 μL aliquot was added to 270 μL of PBS and further ten-fold serial dilutions were performed. Then a 50 μL aliquot was plated on tryptic soy agar and incubated overnight. Colonies were counted and final bacterial concentrations determined. The results of these assays are depicted in FIGS. 9e (for E. coli J5) and 9f (for E. coli 0111:B4).

[1] = In vitro heparin-mediated lengthening of APTT / clotting time of heparinized plasma; type: biochemical, human; settings: for effect on the clotting time of heparinized blood (in words): FIG. 12g; for effect on heparin-mediated lengthening of APTT (in words): citrated human plasma, 25 μg/mL heparin, 0.0 to 56 μg/mL
Procedure: In vitro, the effect of BPI combination functional domain peptides was determined on heparin-mediated lengthening of activated partial […] (APTT). The APTT is lengthened by the presence of endogenous or exogenous inhibitors of thrombin formation, such as therapeutically administered heparin. Thus, agents which neutralize the anti-coagulant effects of heparin will reduce the APTT measured by the test. Citrated human plasma (200 μL) was incubated for 1 minute at 37° C. with either 15 μL of diluent (0.15 M NaCl, 0.1 M Tris-HCl, pH 7.4) or 15 μL of the diluent also containing 25 μg/mL heparin (187 units/mg). Various concentrations (from 0.0 to 56 μg/mL) of rBPI23, rBPI21Δcys, or BPI combination peptides BPI.29 (the DIII homodimer) and BPI.30 (heterodimer DII+DIII) in a volume of 15 μL were added, followed immediately by 100 μL of thrombin reagent (Catalog No. 845-4, Sigma Chemical Co., St. Louis. MO). Clotting time ([…]) was measured using a BBL Fibrometer (Becton Dickenson Microbiology Systems, Cockeysville, Md.). […] FIG. 12e illustrates the results obtained with BPI.30 on a non-log scale.

[2] = test system: LPS-stimulated NO production by RAW 264.7 cells; assay: LPS-stimulated NO production by RAW 264.7 cells; type: cell-based, mouse; settings: for IC50 NO assay: LPS-stimulated NO production by RAW 264.7 cells
Procedure: (§1) An additional LPS neutralization screening assay for BPI functional domain peptides was developed using an assay for NO production in mouse cells treated with LPS (see Lorsbach et al., 1993, J. Biol. Chem. 268: 1908-1913). In this assay, mouse RAW 264.7 cells (ATCC Accession No. TIB71) were treated with bacterial LPS. The cells were incubated in 96-well plates and stimulated for 2 hours with E. coli 0113 LPS or zymosan, in the presence or absence of _-interferon, rLBP, fetal bovine serum (FBS) or normal human serum (NHS), or rBPI21Δcys. After this incubation, the cells were washed with fresh media and incubated overnight in media containing 10% FCS. The NO released from the cells accumulated in the media and spontaneously converted to nitrite. This nitrite was assayed in situ by the Griess reaction, as follows. The nitrite was reacted with the primary amine of an added sulfanilamide and formed a diazonium salt. This salt was then reacted with added naphthylethylenediamine to form a red azo-dyc. The Griess reaction was performed at room temperature in about 10 minutes. The amount of produced NO was estimated from a standard curve of Griess reaction products determined spectrophotometrically as Absorbance at a wavelength of 550 nm.

[3] = test system: zymosan-stimulated NO production by RAW 264.7 cells; assay: Zymosan-stimulated NO production by RAW 264.7 cells; type: cell-based, mouse
Procedure: as §1

C. albicans = assay: Radial diffusion fungicidal assay, Candida albicans; type: cell-based; settings: radial diffusion

## NVGLKFSISNANIKISGKWKAQKRFLK [BPI.3]
E. coli 0113 LPS
  LAL / LPS inhibition activity (in words): moderate LPS inhibition activity
E. coli 0111:B4 (smooth)
  bactericidal activity (in words): less activity
[1]
  effect on the clotting time of heparinized blood (in words): smaller effect
[2]
  inhibition of LPS-stimulated NO production (in words): detectable levels of LPS neutralization
[3]
  inhibition of zymosan-stimulated NO production (in words): not inhibited

## KWKAQKRFLKKWKAQKRFLK-NH2 (C-terminus assumed) [BPI.7]
E. coli 0113 LPS
  LAL / LPS inhibition activity (in words): significant LPS inhibition properties
E. coli 0111:B4 (smooth)
  bactericidal activity (in words): significant bactericidal activity
[1]
  effect on the clotting time of heparinized blood (in words): greatest effect; also recorded: less of a decrease in clotting times
[2]
  IC50 NO assay: Not Inhibitory
[3]
  inhibition of zymosan-stimulated NO production (in words): small amount of inhibition by BPI.7 at high concentrations

## KSKVGWLIQLFHKKKSKVGWLIQLFHKK-NH2 (C-terminus assumed) [BPI.29]
C. albicans
  C. albicans: pmol required for 30 mm^2 zone: >1469.25 pmol
[1]
  effect on the clotting time of heparinized blood (in words): greatest effect
  effect on heparin-mediated lengthening of APTT (in words): inhibit the heparin-mediated lengthening of APTT
[2]
  inhibition of LPS-stimulated NO production (in words): detectable levels of LPS neutralization
  IC50 NO assay: 2.4 µg/mL

## KSKVGWLIQLFHKK-NH2 (C-terminus assumed) [BPI.13]
C. albicans
  C. albicans: pmol required for 30 mm^2 zone: 221.63 pmol
[2]
  inhibition of LPS-stimulated NO production (in words): detectable levels of LPS neutralization
  IC50 NO assay: 16 µg/mL

## IKISGKWKAQKRFLK [BPI.2]
E. coli 0113 LPS
  LAL / LPS inhibition activity (in words): no significant LPS inhibition activity
[1]
  effect on the clotting time of heparinized blood (in words): less of a decrease in clotting times
[3]
  inhibition of zymosan-stimulated NO production (in words): not inhibited

## KWKAQKRFLKKSKVGWLIQLFHKK-NH2 (C-terminus assumed) [BPI.30]
C. albicans
  C. albicans: pmol required for 30 mm^2 zone: >1653.50 pmol
[1]
  effect on the clotting time of heparinized blood (in words): greatest effect
  effect on heparin-mediated lengthening of APTT (in words): inhibit the heparin-mediated lengthening of APTT
[2]
  inhibition of LPS-stimulated NO production (in words): detectable levels of LPS neutralization
[3]
  inhibition of zymosan-stimulated NO production (in words): inhibited by BPI.30 at high (—100 μg/mL) concentrations
